Data on 5 compounds can be found in patent US11680043B2 (priority 2021, dated 2023).

A short description of the data set: Solubility of psilocin salts in saline. Conditions: for XRPD of Residue: solid residue after 5 hrs in saline (Table 9).
The mark [1] stands for this setting: Saline, updated summary (Table 10).
Setting [2] is: pH of saturated solution in saline (Table 9).

SMILES strings stand for the structures. Where “and” joins values, the source holds several entries; their conditions need not be identical. Equal values may be shown once. Where a name gives a salt, the structure may show the parent alone.

Regarding `CN(C)CCc1c[nH]c2cccc(O)c12.O=S(=O)(O)c1cccc2c(S(=O)(=O)O)cccc12` [Psilocin 1,5-napthalenedisulfonate NAP Pattern 1], the “XRPD of Residue” value is given as “NAP Pattern 1”. Under setting [1], the “pH at 5 hrs” value was 2.0. Moreover, under setting [2], the “pH at 5 hrs” value is recorded as 2.0.

As to `CN(C)CCc1c[nH]c2cccc(O)c12.O=C(O)c1ccccc1` [Psilocin benzoate BEN Pattern 1, Psilocin benzoate], the “XRPD of Residue” value was “BEN Pattern 1”. Further, the “pH at 5 hrs” value under setting [1] is 6.8 and 6.9. For the setting “Table 4 summary”, the “Solubility in Saline” value is 5000 µg/mL. Under setting [2], the “pH at 5 hrs” value was 6.8 and 6.9.

On to `CN(C)CCc1c[nH]c2cccc(O)c12` [Psilocin free base, Psilocin, reference compound], for which the “XRPD of Residue” value is reported as “Freeform Pattern 1”. Further, the “pH at 5 hrs” value under setting [1] was 9.8 and 9.9. Besides, the “pH at 5 hrs” value under setting [2] is 9.8 and 9.9.

As to `CN(C)CCc1c[nH]c2cccc(O)c12` [Psilocin hydrochloride HCl Pattern 1, Psilocin hydrochloride], the “pH at 5 hrs” value by setting is: (Saline, updated summary (Table 10), hydrochloride) 4.0 and 5.4; (pH of saturated solution in saline (Table 9), hydrochloride) 6.0 and 6.1.

For the compound `CN(C)CCc1c[nH]c2cccc(O)c12.O=C(O)c1ccccc1O` [Psilocin salicylate SAL Pattern 1, Psilocin salicylate], the “XRPD of Residue” value is recorded as “SAL Pattern 1”. The “pH at 5 hrs” value under setting [1] is recorded as 4.2. Moreover, the “pH at 5 hrs” value under setting [2] came to 4.2.
